The source of these data is patent US6645755B1, “VECTOR MODIFIED BY SEQUENCE CODING FOR A SEQUENCE OF AMINO ACIDS CONTAINED IN A MAMMALIAN PROTEIN HAVING THE BIOLOGICAL ACTIVITY OF A MEMBRANE RECEPTOR, EXPRESSION OF THIS SEQUENCE IN TRANSFORMED UNICELLULAR CULTURES BY MEANS OF THIS VECTOR, PROCEDURE FOR STUDYING LIGANDS RECOGNIZING THESE RECEPTORS” (Centre National de la Recherche Scientifique, priority 1988, dated 2003).

Read-outs that look alike come from different tables or passages of the source.

One test deals with Huβ2AR (Homo sapiens, UniProt P07550). Briefly: Competition binding against ICYP on E. coli expressing Huβ2AR (pSMLβ2).
Test [1] deals with Huβ1AR (Homo sapiens, UniProt P08588). Briefly: Competition binding against ICYP on E. coli expressing Huβ1AR (pSMLβ1).
The subject of test [2] is Huβ1AR. The test is described as above. To be noted: ratio of Ki on Huβ1AR and Huβ2AR expressed in E. coli.
For test [3], the target named is T1, human β2-adrenergic receptor (Homo sapiens, UniProt P07550).
T1 construct: extending from the NcoI site to the DraI site which contained the coding region for the human β2-adrenergic receptor; β-galactosidase (lacZ product of λgt11, fused at the EcoRI site near the 3' end of lacZ) (N); linker Asp-Asp-Pro (acid-cleavable) (N); expressed in transfected cells; host or cells: E. coli Y1089 lysogenized with recombinant λgt11
Briefly: cell-based. The format is binding.

A further test relates to mamm. β1AR. Particulars: reference mammalian tissues, cited from earlier work; for mamm. β1/β2: Ki ratio.
The next test concerns the target mamm. β2AR. To be noted: reference mammalian tissues; cited from earlier work.

What is called Ki is the dissociation constant of the complex between target and ligand, obtained from inhibition or displacement.

Chain of Huβ1AR (Homo sapiens, UniProt P08588) (P08588 58-377 limits assumed): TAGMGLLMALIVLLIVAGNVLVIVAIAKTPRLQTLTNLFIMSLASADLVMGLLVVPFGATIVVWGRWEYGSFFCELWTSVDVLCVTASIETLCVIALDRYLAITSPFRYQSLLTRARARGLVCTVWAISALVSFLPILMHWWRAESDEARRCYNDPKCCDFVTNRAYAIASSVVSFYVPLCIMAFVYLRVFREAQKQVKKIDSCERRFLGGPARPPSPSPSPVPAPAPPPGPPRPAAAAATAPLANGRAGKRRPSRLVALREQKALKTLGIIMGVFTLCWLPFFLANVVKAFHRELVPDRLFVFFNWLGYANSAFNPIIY

For `CCC(NC(C)C)C(O)c1ccc(O)c2[nH]c(=O)ccc12` (centres unmarked) [procaterol], the Ki came to 55.3 nM at Huβ2AR, 4650 nM at Huβ1AR [1] and 40 ± 8 nM in test [3]. In addition, the “E. coli Kiβ1/Kiβ2” value with Huβ1AR [2] is 84,1.

For the compound `NC[C@H](O)c1ccc(O)c(O)c1` [norepinephrine], in the test on mamm. β1AR, the “mamm. β1/β2” value was 1,49 and the Ki is 2800 nM. Moreover, on mamm. β2AR, the inhibition constant (Ki) is 1880 nM.

Turning to `OC(CNCC(O)C1CCc2cc(F)ccc2O1)C1CCc2cc(F)ccc2O1` (centres unmarked) [R67555], in the test on mamm. β1AR, the “mamm. β1/β2” value is 0,02. Further, the Ki on mamm. β1AR is 0.9 nM; on Huβ2AR (read-out: Ki E. coli Huβ2AR, 10 pM ICYP as radioligand, Ki calculated from IC50) it was 3.83 nM; at mamm. β2AR it was 46 nM.

On to `CC(C)NCC(O)COc1cccc2ccccc12` (centres unmarked) [propranolol], for which the “mamm. β1/β2” value in the test with mamm. β1AR is 5,5.

Turning to `CS(=O)(=O)O.Cn1cc(C(F)(F)F)nc1-c1ccc(OCC(O)CNCCOc2ccc(O)c(C(N)=O)c2)cc1` (centres unmarked) [CGP 20712-A], in the test on mamm. β1AR, the “mamm. β1/β2” value is given as 0,003 and the Ki is 3.24 nM. Also, the “E. coli Kiβ1/Kiβ2” value with Huβ1AR [2] was 0,0005. For the same compound, the Ki at mamm. β2AR is 982 nM.

On to `Cc1ccc(OCC(O)C(C)NC(C)C)c2c1CCC2` (centres unmarked) [ICI 118,551], for which, in the test with mamm. β1AR, the “mamm. β1/β2” value is listed as 130 and the Ki is 86 nM.

As for `CC(C)(Cc1ccccc1)NCC(O)c1ccc(O)c(NS(C)(=O)=O)c1` (centres unmarked) [zinterol], the “mamm. β1/β2” value with mamm. β1AR is given as 8,1. Also, the Ki is 170 nM at mamm. β1AR, 9.14 nM on Huβ2AR, 168 nM on Huβ1AR [1] and 21 nM on mamm. β2AR. Besides, the “E. coli Kiβ1/Kiβ2” value in the test with Huβ1AR [2] is 18,4.

Consider `CC(C)(C)NCC(O)c1cc(Cl)c(N)c(Cl)c1` (centres unmarked) [clembuterol], for which the “mamm. β1/β2” value in the test on mamm. β1AR is 5,1. Further, the Ki at mamm. β1AR was 71 nM; at Huβ1AR [1] (read-out: Ki E. coli Huβ1AR, 10 pM ICYP as radioligand, Ki calculated from IC50) it was 37 nM; at mamm. β2AR it was 14 nM.

Compound (−) epinephrine had a Ki in test [3] of 4700 ± 1400 nM.

Turning to `CNC[C@H](O)c1ccc(O)c(O)c1` [epinephrine], in the test with mamm. β1AR, the “mamm. β1/β2” value is given as 4,7 and the Ki is 1900 nM. Further, on mamm. β2AR, the Ki was 403 nM.
